Laboratory results taken from patent US10815238B2, “Antimicrobial compounds and methods of making and using the same” (BIOVERSYS AG, priority 2013, dated 2020).

Experiments:
[1] = tested on: Eschericia coli (E. coli) strain ATCC25922; assay: Standard microdilution assay, MIC against E. coli ATCC25922; format: cell-based; conditions: Escherichia coli; E. coli strain ATCC25922, standard microdilution assay; cutoff 16 micrograms/mL; read-out: MIC E. Coli
Method in brief: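 MIC determined by broth microdilution following CLSI protocols, with reference strains run in parallel for quality control. Activity scored +/− at a cutoff of 16 micrograms/mL.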

[2] = tested on: Staphylococcus aureus (S. aureus) 11540 strain; assay: Standard microdilution assay, MIC against S. aureus 11540; format: cell-based; conditions: S. aureus 11540 strain, standard microdilution assay, cutoff 16 micrograms/mL, read-out: MIC S. aureus
Description: The in vitro activity of the compounds of the present invention can be determined. Antimicrobial testing is typically performed to determine the minimum inhibitory concentration (MIC). Minimum inhibitory concentrations (MICs) are determined by the microdilution method in a final volume of 100 μl according to protocols outlined by The Clinical and Laboratory Standards Institute (CLSI). Performance standards for reference strains are assessed within the same experimental design to maintain quality control. See, for example, Clinical Laboratory Standards Institute: Methods for dilution antimicrobial susceptibility tests for bacteria that grow aerobically M7-A8. Approved Standard-Eighth Edition. Wayne, Pa.: CLSI; December 2008; and Clinical Laboratory Standards Institute: Performance Standards for Antimicrobial Susceptibility Testing M100-S20; Approved Standard-Twentieth Edition. Wayne, Pa.: CLSI; June 2010.
The compounds of the present invention were tested for antimicrobial activity. The Compounds 1-582 were run against Eschericia coli (E. coli) strain ATCC25922 and Compounds 320-582 were run against Staphylococcus aureus (S. aureus) 11540 strain using a standard microdilution assay to determine minimum inhibitory concentrations (MICs). […] It will be recognized by one skilled in the art that the compounds can be assessed against other bacterial organisms and that the presentation of data for activity against Eschericia coli and Staphylococcus aureus are illustrative and in no way is intended to limit the scope of the present invention. The compounds of the present invention can be assayed against a range of other microorganisms depending upon the performance activity desired to be gathered. Furthermore, the “+” and “−” representation and the selection of a cutoff value of 16 micrograms/mL is also illustrative and in no way is intended to limit the scope of the present invention.

MIC [1] [µg/mL]	MIC [2] [µg/mL]	Structure (SMILES)
< 16	< 16	C[C@H](N)CCCc1cccc(-c2cc3cn(-c4ccc(CNCCCNC(=N)N)cc4)c(=O)nc3[nH]2)c1 [Compound 520]
< 16	< 16	C[C@H](N)CCCc1cc(Cl)c(F)c(-c2cc3cn(-c4ccc([C@H]5CCC[C@H](CCNC6=NCCN6)N5)cc4)c(=O)nc3[nH]2)c1 [Compound 541]
< 16	< 16	C[C@H](N)CCCc1cc(Cl)c(F)c(-c2cc3cn(-c4ccc([C@@H]5CCC[C@@H](CCCNC(=N)N)N5)cc4)c(=O)nc3[nH]2)c1 [Compound 556]
> 16	< 16	C[C@H](N)CCCc1cc(Cl)c(F)c(-c2cc3cn(-c4ccc([C@@H]5CCC[C@@H](CCc6nccs6)N5)cc4)c(=O)nc3[nH]2)c1 [Compound 546]
< 16	< 16	CC(=N)NCC[C@@H]1CCC[C@@H](c2ccc(-n3cc4cc(-c5cc(CCC[C@H](C)N)cc(Cl)c5F)[nH]c4nc3=O)cc2)N1 [Compound 516]
< 16	< 16	CC#C[C@H](CCNC(=N)N)NCc1ccc(-n2cc3cc(-c4cc(CCC[C@H](C)N)cc(Cl)c4F)[nH]c3nc2=O)cc1 [Compound 506]
< 16	< 16	C[C@H](N)CCCc1cc(Cl)c(F)c(-c2cc3cn(-c4ccc([C@H]5CCO[C@H](CNC(=N)N)C5)cc4)c(=O)nc3[nH]2)c1 [Compound 561]
< 16	< 16	C[C@H](N)CCCc1cc(Cl)c(F)c(-c2cc3cn(-c4ccc([C@@H]5CC(CCNC(=N)N)CN5)cc4)c(=O)nc3[nH]2)c1 (some centres unmarked) [Compound 405]
< 16	< 16	C[C@H](N)CCCc1cc(Cl)c(F)c(-c2cc3cn(-c4ccc([C@@H](N)CCN)cc4)c(=O)nc3[nH]2)c1 [Compound 425]
< 16	< 16	C[C@H](N)CCCc1cc(Cl)c(F)c(-c2cc3cn(-c4ccc([C@@H]5CCC[C@@H](CCc6ncc[nH]6)N5)cc4)c(=O)nc3[nH]2)c1 [Compound 508]
< 16	< 16	C[C@H](N)CCCc1cc(Cl)c(F)c(-c2cc3cn(-c4ccc([C@H](N)CCCNC(=N)N)cc4)c(=O)nc3[nH]2)c1 [Compound 456]
< 16	< 16	C=C[C@@H](CCNC(=N)N)NCc1ccc(-n2cc3cc(-c4cc(CCC[C@H](C)N)cc(OC(F)(F)F)c4F)[nH]c3nc2=O)cc1 [Compound 388]
> 16	> 16	C[C@H](N)CCCc1cc(Cl)c(F)c(-c2cc3cn(-c4ccc([C@@H]5CCC[C@@H](CCn6ccnn6)N5)cc4)c(=O)nc3[nH]2)c1 [Compound 478]
< 16	< 16	C[C@H](N)CCCc1cc(Cl)c(F)c(-c2cc3cn(-c4ccc([C@H](N)CCN)cc4)c(=O)nc3[nH]2)c1 [Compound 440]
< 16	< 16	C[C@H](N)CCCc1cc(Cl)c(F)c(-c2cc3cn(-c4ccc([C@@H]5COC[C@H](CCNC(=N)N)N5)cc4)c(=O)nc3[nH]2)c1 [Compound 384]
< 16	< 16	C[C@H](N)CCCc1cc(OC(F)(F)F)c(F)c(-c2cc3cn(-c4ccc([C@@H]5CC(CCN)CN5)cc4)c(=O)nc3[nH]2)c1 (some centres unmarked) [Compound 409]
< 16	< 16	COC(=O)[C@H](CCNC(=N)N)N[C@@H](C)c1ccc(-n2cc3cc(-c4cc(CCC[C@H](C)N)cc(OC(F)(F)F)c4F)[nH]c3nc2=O)cc1 [Compound 362]
< 16	< 16	C[C@H](N)CCCc1cc(Cl)c(F)c(-c2cc3cn(-c4ccc([C@@H]5CCC[C@@H](CCNC(=N)N)N5)cc4)c(=O)nc3[nH]2)c1 [Compound 420]
> 16	< 16	COc1ccc(Cn2cc([C@@H]3COC[C@H](c4ccc(-n5cc6cc(-c7cc(CCC[C@H](C)N)cc(Cl)c7F)[nH]c6nc5=O)cc4)N3)nn2)cc1 [Compound 392]
< 16	< 16	C[C@H](N)CCCc1cc(OC(F)(F)F)c(F)c(-c2cc3cn(-c4ccc(CN[C@H](C)C[C@@H](CN)NC(=N)N)cc4)c(=O)nc3[nH]2)c1 [Compound 402]
< 16	< 16	C[C@H](N)CCCc1cc(Cl)c(F)c(-c2cc3cn(-c4ccc([C@@H]5CCC[C@@H](CCCN)N5)cc4)c(=O)nc3[nH]2)c1 [Compound 557]
< 16	< 16	C=C[C@@H](C[C@@H](C)NCc1ccc(-n2cc3cc(-c4cc(CCC[C@H](C)N)cc(Cl)c4F)[nH]c3nc2=O)cc1)NC(=N)N [Compound 373]
